Laboratory results reported in patent publication US20210363483A1, “METHOD FOR PRODUCING CULTURED CELL, AND METHOD FOR PRODUCING THERAPEUTIC AGENT FOR SPINAL CORD INJURY DISEASE” (REGENESIS SCIENCE CO., LTD., priority 2017, published 2021).

Test system: GDNF mRNA
Assay: GDNF mRNA expression by real-time PCR in cultured human skin-derived stem cells
Assay type: cell-based
Protocol: To find a compound or cytokine to increase the expression of GDNF in cells, following 6 candidate materials were examined: Valproic Acid (VA), Platelet-Derived Growth Factor (PDGF), SAG (or Purmorphamine or rh-Sonic Hedgehog (PeproTech)), Bone Morphogenic Protein 4 (BMP4). These 6 materials were added to 7 wells, which had reached to confluence in Example 1, in the following combinations: (1) Control (not added) (2) VA (1 uM), (3) VA (1 uM)+PDGF (long/ml), (4) VA (1 uM)+SAG (0.3 uM), (5) PDGF (long/ml), (6) SAG (0.3 uM), (7) […] (long/ml). 72 hours after the addition, total RNA was extracted from each well by TRIzol method. Using “ReverTra Ace (trade mark) qPCR RT kit”, a cDNA synthesis kit for PCR, 0.5 ug of each total RNA was added to 10 μL of ReverTra Ace (trade mark) qPCR RT kit to synthesize respective cDNA. […]
PCR was performed by three-step method under the conditions of annealing 60° C./elongation 72° C. and the steps (1) to (2) were repeated for 40 cycles. In the last step, a Melting Curve was analyzed and it was confirmed that no primer dimer was produced. […]

Compound	expression of GDNF mRNA (GDNF mRNA/GAPDH mRNA) compared with control (Purmorphamine 1.5 uM used in place of SAG) [times]	expression of GDNF mRNA (GDNF mRNA/GAPDH mRNA) compared with control (SAG 0.3 uM, 72 hours after addition)
c1ccc2c(Oc3nc(Nc4ccc(N5CCOCC5)cc4)c4ncn(C5CCCCC5)c4n3)cccc2c1 [Purmorphamine, 9-Cyclohexyl-N-[4-(4-morpholinyl)phenyl]-2-(1-naphthalenyloxy)-9H-purin-6-amine]	~10	
CNC1CCC(N(Cc2cccc(-c3ccncc3)c2)C(=O)c2sc3ccccc3c2Cl)CC1 (centres unmarked) [SAG, N-Methyl-N′-(3-pyridinylbenzyl)-N′-(3-chlorobenzo[b]thiophene-2-carbonyl)-1,4-diaminocyclohexane]		more than 10 times
